26 compounds from ChEMBL document CHEMBL1201862, “PubChem BioAssay data set” (2004) can be followed below.

Some test systems named below: M19-MEL; LXFL 529; KM-20L2; DMS-273; SNB-78; DLD-1; HOP-18; XF498; RXF 631.
What all share (test): growth of human tumour cells (NCI), 48 h

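Where inhibition never reached the appropriate level, the endpoint shown equals the highest concentration tested. Otherwise, values were interpolated linearly from a five-concentration, 48-hour dose response in 96-well plates. Abbreviation: GI50, concentration required for 50% inhibition of growth.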 The source made the active and inactive calls. No stated cut-off is given here; in the data, active = GI50 up to about 1.1 µM and inactive = higher. A value given as a limit tells only on which side of the number the result lay.

Regarding `COC(=O)C12C3C4C5(C(=O)OC)C(C1C35C(=O)N(C(C)C)C(C)C)C42C(=O)N(C(C)C)C(C)C` (stereo unspecified), the GI50 with M19-MEL was > 47.8 µM (inactive); with LXFL 529, > 50 µM (inactive); with KM-20L2 it was > 50 µM (inactive); in the test with DMS-273 it was > 30.8 µM (inactive); in the test with SNB-78 it was > 50 µM (inactive); in the test on DLD-1 it was > 25.6 µM (inactive). Further, the GI50 in the test on HOP-18 was > 50 µM (inactive).
In the case of `O=C(Nc1ccc(Cl)cc1)c1cccc([N+](=O)[O-])c1O`, the GI50 in the test with M19-MEL is 2.8 µM (inactive); with LXFL 529, 3.1 µM (inactive); in the test with KM-20L2 it was 4.43 µM (inactive); in the test with DMS-273 it was 3.13 µM (inactive); in the test on SNB-78, 4.27 µM (inactive); in the test with XF498, 2.64 µM (inactive). Besides, the GI50 in the test on DLD-1 is 3.18 µM (inactive); with HOP-18, 0.53 µM (active).
Turning to `O=C(Cc1ccccc1F)NC1=C(Cl)C(=O)c2ccccc2C1=O`, the GI50 in the test with M19-MEL was 0.461 µM (active); in the test with LXFL 529 it was 0.405 µM (active); in the test with KM-20L2, 8.43 µM (inactive); with DMS-273, 1.52 µM (inactive); with XF498 it was 0.706 µM (active); in the test with HOP-18, 0.668 µM (active).
Consider `COC(=O)C(=O)C(C(=O)OC)C(=O)C(=O)Nc1cc(Cl)c(C)cc1S(=O)(=O)O` (stereo unspecified), for which the GI50 in the test with M19-MEL, in the test on LXFL 529, in the test on KM-20L2, with DMS-273, in the test on SNB-78 and in the test with XF498 was > 100 µM (inactive) throughout. In addition, the GI50 in the test with DLD-1 and in the test with HOP-18 was > 100 µM (inactive) throughout.
Turning to `COc1ccc(C=C2C(=O)OC(C)(C)OC2=O)cc1OC`, the GI50 with M19-MEL, in the test with LXFL 529, with KM-20L2, in the test with SNB-78, with XF498 and with DLD-1 was > 100 µM (inactive) throughout.
With `O=C(CN(c1ccccc1)c1ccccc1)n1nnc2ccccc21`, the GI50 with M19-MEL was 20.6 µM (inactive); in the test on LXFL 529, 70.6 µM (inactive); in the test with KM-20L2, 36.4 µM (inactive); in the test on DMS-273 it was 39.9 µM (inactive); in the test on SNB-78, 47.4 µM (inactive); in the test with DLD-1 it was 76.2 µM (inactive).
On to `CCOC(=O)C1Sc2ccccc2N=C1C` (stereo unspecified), for which the GI50 with M19-MEL, in the test on LXFL 529, with KM-20L2, with SNB-78, with XF498 and in the test on DLD-1 was > 100 µM (inactive) throughout. Further, the GI50 in the test on HOP-18 was > 100 µM (inactive).
`O=c1c(O)c(-c2ccc(O)c(O)c2)oc2cc(O)cc(O)c12` [QUERCETIN]: the GI50 is 77.8 µM (inactive) in the test with M19-MEL; > 100 µM (inactive) in the test with LXFL 529; 83.6 µM (inactive) in the test on KM-20L2; 49.7 µM (inactive) with DMS-273; > 100 µM (inactive) in the test with SNB-78; 38.1 µM (inactive) with RXF 631. For the same compound, the GI50 in the test on XF498 is 72.8 µM (inactive); in the test on DLD-1 it was 37.2 µM (inactive); with HOP-18 it was > 100 µM (inactive).
As for `O=C1CC23CCCCCCCCCCC2(C1)CC(=O)C3` (stereo unspecified), the GI50 is 20.7 µM (inactive) with M19-MEL; 23.6 µM (inactive) in the test on LXFL 529; 23.1 µM (inactive) with DMS-273; 21.5 µM (inactive) in the test on XF498; 34 µM (inactive) in the test on DLD-1; 24 µM (inactive) with HOP-18.
For the compound `Cc1ccc(NC(=O)C(=O)Cc2nc3ccccc3o2)c(C)c1`, the GI50 in the test on M19-MEL, with LXFL 529, in the test on KM-20L2, with DMS-273, in the test with SNB-78 and with RXF 631 was > 100 µM (inactive) in each case. Besides, the GI50 with XF498 and in the test with DLD-1 was > 100 µM (inactive) throughout.
As for `CCCN(CCC)C(=O)Cc1c2n(c3ccccc13)CCCc1ccccc1-2`, the GI50 in the test on M19-MEL is 14.8 µM (inactive); in the test with LXFL 529 it was 13.6 µM (inactive); with KM-20L2, 14.4 µM (inactive); in the test with DMS-273 it was 11 µM (inactive); with SNB-78, 12.3 µM (inactive); in the test on XF498, 15.1 µM (inactive). The GI50 in the test on DLD-1 was 13.6 µM (inactive); with HOP-18, 16.3 µM (inactive).
For the compound `COc1cc(C(C#N)NNc2nc(C)cc(O)n2)cc(OC)c1OC` (stereo unspecified), the GI50 in the test with M19-MEL, in the test on LXFL 529, in the test with KM-20L2, with DMS-273, in the test on SNB-78 and with DLD-1 was > 100 µM (inactive) each time. The GI50 with HOP-18 was > 100 µM (inactive).
Consider `COCCNC(=O)C1C(=O)C(=O)N(CCOC)C1=O` (stereo unspecified), for which the GI50 with M19-MEL, in the test with LXFL 529, with KM-20L2, in the test on DMS-273, in the test on SNB-78 and in the test with RXF 631 was > 100 µM (inactive) throughout. The GI50 in the test with DLD-1 and in the test with HOP-18 was > 100 µM (inactive) each time.
For the compound `O=C(CCc1n[nH]c(=S)o1)Nc1cc(Cl)c(Cl)cc1Cl`, the GI50 in the test with M19-MEL was > 100 µM (inactive); in the test with LXFL 529, 44.8 µM (inactive); with KM-20L2, 45.8 µM (inactive); with DMS-273, 24.3 µM (inactive); with SNB-78, > 100 µM (inactive); in the test with RXF 631, 44.6 µM (inactive). For the same compound, the GI50 with DLD-1 is 29 µM (inactive); in the test on HOP-18, 58.7 µM (inactive).
In the case of `O=c1/c(=C/c2c(O)ccc3ccccc23)sc2nc3ccccc3n12`, the GI50 in the test on M19-MEL, in the test on LXFL 529, in the test on KM-20L2, in the test with DMS-273, in the test on SNB-78 and in the test with RXF 631 was > 100 µM (inactive) in each case. Also, the GI50 with XF498, with DLD-1 and with HOP-18 was > 100 µM (inactive) in each case.
With `CCOc1cc(/C=C/C=C/C=C/c2ccc(N(C)C)cc2)[s+]c2ccccc12`, the GI50 was 25 µM (inactive) in the test on M19-MEL; 16.3 µM (inactive) with LXFL 529; 73.8 µM (inactive) in the test on DMS-273; 22.5 µM (inactive) with SNB-78; > 100 µM (inactive) with RXF 631; 23.8 µM (inactive) in the test with XF498.
`COc1cc2c(cc1O)[C@H](C)C(c1ccccc1OC)O2` (stereo partly specified): the GI50 with M19-MEL is 3.77 µM (inactive); in the test on LXFL 529, 8 µM (inactive); in the test with KM-20L2, 5.07 µM (inactive); in the test with DMS-273 it was 2.67 µM (inactive); in the test on SNB-78 it was 5.78 µM (inactive); with XF498, 5.19 µM (inactive). For the same compound, the GI50 in the test with DLD-1 was 4.75 µM (inactive); with HOP-18 it was > 100 µM (inactive).
As for `CC(C)C1NC(=O)[C@H](C)OC(=O)[C@@H](C(C)C)NC(=O)[C@@H](C)OC(=O)C(C(C)C)NC(=O)[C@H](C)OC1=O` (stereo partly specified), the GI50 with M19-MEL is > 55.5 µM (inactive); in the test on LXFL 529 it was > 66.2 µM (inactive); in the test with KM-20L2, 56.4 µM (inactive); with DMS-273, 59.2 µM (inactive); in the test with SNB-78, > 100 µM (inactive); in the test with XF498, 94 µM (inactive). Moreover, the results for the GI50 with DLD-1 and in the test on HOP-18 were > 59.6 µM (inactive) and > 100 µM (inactive), respectively.
For the compound `COc1cc2ccc(=O)oc2cc1O` [SCOPOLETIN], the GI50 is 72.4 µM (inactive) with M19-MEL; 187 µM (inactive) with KM-20L2; 36.3 µM (inactive) in the test with DMS-273; 307 µM (inactive) with SNB-78; 63.7 µM (inactive) in the test with XF498; 83.2 µM (inactive) with DLD-1. Moreover, the GI50 in the test on HOP-18 was 150 µM (inactive).
For `CC(C)CC(NC(=O)OC(C)(C)C)C(=O)Nc1ccc(Nc2nc(F)nc(-c3c4ccccc4c4n3CCS4)n2)cc1` (stereo unspecified), the GI50 in the test on LXFL 529 was 19.5 µM (inactive); with KM-20L2, 18.3 µM (inactive); in the test on DMS-273, 16.9 µM (inactive); in the test with SNB-78, 21.2 µM (inactive); in the test on XF498, 25.2 µM (inactive); with DLD-1, 20 µM (inactive). Besides, the GI50 with HOP-18 was 24.4 µM (inactive).
For `CCOc1ccc([Se][Se]c2ccc(OCC)cc2)cc1`, the GI50 is 25.6 µM (inactive) with M19-MEL; 26 µM (inactive) in the test with LXFL 529; > 100 µM (inactive) in the test with KM-20L2; 79.1 µM (inactive) with DMS-273; 32.7 µM (inactive) with SNB-78; 44.5 µM (inactive) with RXF 631. Also, the GI50 with DLD-1 and in the test with HOP-18 was > 100 µM (inactive) in each case.
Turning to `CCOC(=O)C(NC(=O)c1nc[nH]c1[N+](=O)[O-])C(C)C` (stereo unspecified), the GI50 in the test with M19-MEL is > 100 µM (inactive); in the test on LXFL 529 it was 74.3 µM (inactive); in the test on DMS-273 it was 53.6 µM (inactive); in the test on XF498 it was 19.9 µM (inactive); with DLD-1 it was 25 µM (inactive).
`CSc1ncnc2c1CCN2`: the GI50 in the test with M19-MEL, with LXFL 529 and in the test on SNB-78 was > 100 µM (inactive) in each case.
Consider `C=C1C(C(=O)O)C1C(=O)O` (stereo unspecified), for which the GI50 with M19-MEL, in the test with KM-20L2, in the test with DMS-273, with SNB-78, in the test on XF498 and in the test on DLD-1 was > 100 µM (inactive) in each case. Further, the GI50 with HOP-18 was > 100 µM (inactive).
For `CNC(=O)CN(CC(N)=O)C(=O)NC`, the GI50 in the test with M19-MEL, in the test with LXFL 529, with KM-20L2, in the test with DMS-273, with SNB-78 and in the test on RXF 631 was > 100 µM (inactive) each time. In addition, the GI50 with XF498 and in the test with DLD-1 was > 100 µM (inactive) each time.
As for `O=C1CCC2CCc3cccc4oc1c2c34` (stereo unspecified), the GI50 with M19-MEL, with LXFL 529, in the test with KM-20L2, in the test with DMS-273, in the test with SNB-78 and with XF498 was > 100 µM (inactive) throughout. The GI50 in the test with DLD-1 and in the test with HOP-18 was > 100 µM (inactive) in each case.
